Assay results as given in article PMC6925736, “Development of a HPLC-MS/MS Method to Determine the 13 Elements of Semen Cuscutae and Application to a Pharmacokinetic Study in Rats” (Evidence-based Complementary and Alternative Medicine : eCAM, 2019).

Experiments:
[1] = Pharmacokinetic study in rats after oral administration of Semen Cuscutae extract (HPLC-MS/MS of plasma); type: in vivo, Sprague–Dawley rats; settings: oral Semen Cuscutae extract 13 g/kg; for plasma concentration after 15 minutes of intragastric administration: LLOQ 1 ng/mL
Protocol: 20 μL of methanol, 20 μL of IS (liquiritin, 200 ng/mL) and 20 μL of formic acid were added to 100 μL of plasma sample and then vortex-mixed. The mixture was extracted with 800 μL of acetonitrile by vortexing for 3 min. After centrifugation at 14000 rpm for 10 min, the supernatant was transferred to a clean glass tube and dried with nitrogen. The residue was reconstituted in 100 μL of methanol and then centrifuged at 14000 rpm for 10 min. 5 μL of supernatant was injected into the LC–MS/MS system for analysis.
Six Sprague–Dawley rats (SPF, 200 ± 10 g, male) were purchased from HFK Laboratory Animal Technology Co., Ltd. The rats were housed in a standard laboratory condition (12 h dark-light cycle; temperature was 25°C ± 2°C and humidity was kept 50 ± 5%) and fed standard dry pellet diet and water for one week for acclimatization. Before the experiments, the rats were in fasting state for 12 h, with free access to water. The Semen Cuscutae extracts were dissolved in 0.5% carboxymethyl cellulose-sodium, prepared into suspension and gavage to the rats at a dose of 13 g/kg. Approximately 200 μL of rat blood samples was collected from the orbital venous plexus at 0, 0.03, 0.08, 0.17, 0.25, 0.5, 1, 2, 4, 6, 8, 10, 12, 24, 36, and 48 h after oral administration into 1.5 mL heparinized centrifuge tube. After centrifugation at 7000 rpm for 10 min immediately, the supernatant was collected into a new centrifuge tube and stored at −70°C until analysis.
Pharmacokinetic parameters (Cmax, t1/2, Tmax, AUC(0-tn), and AUC(0-∞)) were obtained using the software “Drug and Statistics 3.0” (DAS 3.0) (Medical College of Wannan, China).

[2] = Stability of analytes in rat plasma QC samples under processing and storage conditions; type: in vitro ADME; settings: n = 6; for Measured concentration, room temperature for 4h / Measured concentration, three freeze-thaw / Measured concentration, −70°C for 21 days: rat plasma; for Measured concentration, autosampler for 12h: treated rat plasma sample
Protocol: The stability of the 13 analytes was evaluated by QC samples in different processing and storage conditions, including short-term stability (putting the analytes in ambient temperature for 4 h and storing analytes in autosampler for 12 h after treatment), long-term stability (storing the analytes at −70°C for 21 days) and subjecting analytes to three freeze-thaw cycles. All stability experiments were tested in six parallels with low, middle, and high concentrations.

[3] = male, Sprague-Dawley, rat, plasma, po, 13 g/kg, n = 6
[4] = male, Sprague-Dawley, rat plasma, n = 6
[5] = rat plasma, n = 6, listed as isoquercitrin

Row | Compound | plasma concentration after 15 minutes of intragastric administration ([1]; rat plasma) | Measured concentration, room temperature for 4h ([2]; spiked 2 ng/mL) | Measured concentration, three freeze-thaw ([2]; spiked 2 ng/mL) | Measured concentration, −70°C for 21 days ([2]; spiked 2 ng/mL) | Measured concentration, room temperature for 4h ([2]; spiked 25 ng/mL) | Measured concentration, three freeze-thaw ([2]; spiked 25 ng/mL) | Measured concentration, −70°C for 21 days ([2]; spiked 25 ng/mL) | Measured concentration, room temperature for 4h ([2]; spiked 250 ng/mL) | Measured concentration, three freeze-thaw ([2]; spiked 250 ng/mL) | Measured concentration, −70°C for 21 days ([2]; spiked 250 ng/mL) | Measured concentration, autosampler for 12h ([2]; spiked 2 ng/mL) | Measured concentration, autosampler for 12h ([2]; spiked 25 ng/mL) | Measured concentration, autosampler for 12h ([2]; spiked 250 ng/mL) | C max ([1]; rat plasma, n = 6) | t 1/2 ([1]; rat plasma, n = 6) | also measured
1 | O=c1c(O)c(-c2ccc(O)c(O)c2)oc2cc(O)cc(O)c12 [Quercetin] | lower than the LLOQ | 2.2 ± 0.1 ng/mL | 2.0 ± 0.1 ng/mL | 1.9 ± 0.1 ng/mL | 26.2 ± 0.7 ng/mL | 27.3 ± 0.6 ng/mL | 25.6 ± 0.9 ng/mL | 254.9 ± 11.8 ng/mL | 253.2 ± 5.0 ng/mL | 260.0 ± 6.2 ng/mL | 2.3 ± 0.1 ng/mL | 26.6 ± 0.7 ng/mL | 245.3 ± 11.6 ng/mL | – | – | –
2 | C[C@@H]1O[C@@H](Oc2c(-c3ccc(O)c(O)c3)oc3cc(O)cc(O)c3c2=O)[C@H](O)[C@H](O)[C@H]1O [Quercitrin] | lower than the LLOQ | 2.1 ± 0.1 ng/mL | 2.3 ± 0.1 ng/mL | 2.0 ± 0.1 ng/mL | 26.3 ± 0.7 ng/mL | 26.9 ± 1.5 ng/mL | 26.5 ± 0.5 ng/mL | 252.5 ± 9.1 ng/mL | 261.4 ± 10.3 ng/mL | 247.9 ± 5.3 ng/mL | 2.1 ± 0.1 ng/mL | 26.4 ± 0.9 ng/mL | 253.1 ± 4.7 ng/mL | – | – | –
3 | C[C@@H]1O[C@@H](OC[C@H]2O[C@@H](Oc3c(-c4ccc(O)c(O)c4)oc4cc(O)cc(O)c4c3=O)[C@H](O)[C@@H](O)[C@@H]2O)[C@H](O)[C@H](O)[C@H]1O [Rutin] | – | – | – | – | – | – | – | – | – | – | – | – | – | higher than that of other components | 7.70 ± 0.90 h | Tmax [1, 3]: 10 ± 0.03 h; half-life [1, 3]: > 7.5 h; AUC(0-inf) [1, 4]: 4790 ± 2240 ng·h/mL; Cmax [1, 4]: 158 ± 84.1 ng/mL; AUC ([1]; male, Sprague-Dawley, rat plasma, n = 6, read-out: AUC(0-tn)): 4460 ± 2270 ng·h/mL; Measured concentration, room temperature for 4h ([2]; spiked 4 ng/mL): 3.9 ± 0.2 ng/mL; Measured concentration, three freeze-thaw ([2]; spiked 4 ng/mL): 4.0 ± 0.1 ng/mL; Measured concentration, −70°C for 21 days ([2]; spiked 4 ng/mL): 4.0 ± 0.1 ng/mL; Measured concentration, room temperature for 4h ([2]; spiked 50 ng/mL): 56.3 ± 2.3 ng/mL; Measured concentration, three freeze-thaw ([2]; spiked 50 ng/mL): 57.7 ± 1.0 ng/mL; Measured concentration, −70°C for 21 days ([2]; spiked 50 ng/mL): 52.7 ± 3.9 ng/mL; Measured concentration, room temperature for 4h ([2]; spiked 500 ng/mL): 505.7 ± 13.0 ng/mL; Measured concentration, three freeze-thaw ([2]; spiked 500 ng/mL): 513.1 ± 7.4 ng/mL; Measured concentration, −70°C for 21 days ([2]; spiked 500 ng/mL): 494.4 ± 8.8 ng/mL; Measured concentration, autosampler for 12h ([2]; spiked 4 ng/mL): 4.0 ± 0.2 ng/mL; Measured concentration, autosampler for 12h ([2]; spiked 50 ng/mL): 49.8 ± 2.7 ng/mL; Measured concentration, autosampler for 12h ([2]; spiked 500 ng/mL): 489.3 ± 14.2 ng/mL
4 | Isoquercitrin | – | 1.8 ± 0.2 ng/mL | 2.1 ± 0.1 ng/mL | 1.9 ± 0.1 ng/mL | 22.8 ± 1.4 ng/mL | 26.2 ± 1.8 ng/mL | 25.9 ± 1.8 ng/mL | 247.2 ± 14.7 ng/mL | 248.9 ± 5.1 ng/mL | 263.6 ± 10.2 ng/mL | 1.9 ± 0.1 ng/mL | 24.0 ± 0.5 ng/mL | 238.3 ± 7.2 ng/mL | 52.61 ± 7.55 ng/mL | 0.49 ± 0.05 h | AUC(0-tn) ([1]; rat plasma, n = 6): 838.79 ± 518.04 ng·h/mL; AUC(0-∞) ([1]; rat plasma, n = 6): 949.49 ± 594.15 ng·h/mL; T max ([1]; rat plasma, n = 6): 0.21 ± 0.07 h; T max [1, 5]: less than 1 h; t 1/2 [1, 5]: less than 1.5 h
